Measurements taken from the supplement of paper PMC5908809.

Legend:
[1] = tested on: normal NK cells expanded with K562-aAPC; experiment: percent inhibition of viability; higher = more inhibition; conditions: 72 h, IL-2 2.5 ng/mL
Experimental: (§1)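 Drug sensitivity and resistance testing on K562-aAPC-expanded normal NK cells: 5 concentrations (10-fold steps over a 10,000-fold range), 72 h at 37 °C, viability by CellTiter-Glo normalised to DMSO and benzethonium chloride controls; DSS from the fitted curve.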

DERL-7 (IL-2 2.5 ng/mL) [2] = experiment: as above; conditions: 72 h
IMC-1 (IL-2 20 ng/mL) [3] = experiment: as above; conditions: 72 h
KAI3 (IL-2 2.5 ng/mL) [4] = experiment: as above; conditions: 72 h
KHYG-1 (IL-2 2.5 ng/mL) [5] = experiment: as above; conditions: 72 h
NK-92 (IL-2 2.5 ng/mL) [6] = experiment: as above; conditions: 72 h
NK-YS (IL-2 2.5 ng/mL) [7] = experiment: as above; conditions: 72 h
NKL (IL-2 2.5 ng/mL) [8] = experiment: as above; conditions: 72 h
SNK-6 (IL-2 2.5 ng/mL) [9] = experiment: as above; conditions: 72 h
YT (IL-2 2.5 ng/mL) [10] = experiment: as above; conditions: 72 h
[11] = tested on: normal primary NK cells, pool 1 (3 donors) (IL-2 2.5 ng/mL); experiment: as above; conditions: 72 h
[12] = tested on: normal primary NK cells, pool 1 (3 donors), resting (IL-2 0 ng/mL); experiment: as above; conditions: 72 h
[13] = tested on: normal primary NK cells, pool 2 (3 donors) (IL-2 2.5 ng/mL); experiment: as above; conditions: 72 h
[14] = tested on: normal primary NK cells, pool 3 (3 donors) (IL-2 2.5 ng/mL); experiment: as above; conditions: 72 h
[15] = tested on: normal NK cells expanded with K562-aAPC; experiment: drug sensitivity score (DSS) (DSS units); higher = more sensitive; extreme values may be limits of the assay; conditions: 72 h; IL-2 2.5 ng/mL
Experimental: as §1

DERL-7 (IL-2 2.5 ng/mL) [16] = experiment: as above; conditions: 72 h
IMC-1 (IL-2 20 ng/mL) [17] = experiment: as above; conditions: 72 h
KAI3 (IL-2 2.5 ng/mL) [18] = experiment: as above; conditions: 72 h
KHYG-1 (IL-2 2.5 ng/mL) [19] = experiment: as above; conditions: 72 h
NK-92 (IL-2 2.5 ng/mL) [20] = experiment: as above; conditions: 72 h
NK-YS (IL-2 2.5 ng/mL) [21] = experiment: as above; conditions: 72 h
NKL (IL-2 2.5 ng/mL) [22] = experiment: as above; conditions: 72 h
SNK-6 (IL-2 2.5 ng/mL) [23] = experiment: as above; conditions: 72 h
YT (IL-2 2.5 ng/mL) [24] = experiment: as above; conditions: 72 h
[25] = tested on: normal primary NK cells, pool 1 (3 donors) (IL-2 2.5 ng/mL); experiment: as above; conditions: 72 h
[26] = tested on: normal primary NK cells, pool 1 (3 donors), resting (IL-2 0 ng/mL); experiment: as above; conditions: 72 h
[27] = tested on: normal primary NK cells, pool 2 (3 donors) (IL-2 2.5 ng/mL); experiment: as above; conditions: 72 h
[28] = tested on: normal primary NK cells, pool 3 (3 donors) (IL-2 2.5 ng/mL); experiment: as above; conditions: 72 h

N[C@@H]1CCCN(c2c(/C=C3\SC(=O)NC3=O)cccc2-c2ccccc2)C1 [AZD1208] (max concentration tested 10000 nM)
percent inhibition of viability [%]
Conditions	1 nM	10 nM	100 nM	1000 nM	10000 nM
DERL-7 (IL-2 2.5 ng/mL) [2]	1.77	2.67	16.4	40.2	56.5
IMC-1 (IL-2 20 ng/mL) [3]	-4.38	-1.65	-10.7	-5.11	-8.15
KAI3 (IL-2 2.5 ng/mL) [4]	-0.84	0.89	7.33	28.1	34.3
KHYG-1 (IL-2 2.5 ng/mL) [5]	-4.34	-1.4	1.04	10.7	23.3
NK-92 (IL-2 2.5 ng/mL) [6]	-9.08	-8.5	-4.31	0.29	9
NK-YS (IL-2 2.5 ng/mL) [7]	-4.63	0.2	2.23	14.4	31.6
NKL (IL-2 2.5 ng/mL) [8]	-10.7	-16.5	4.37	35.7	49.5
SNK-6 (IL-2 2.5 ng/mL) [9]	-0.39	4.45	-2.55	5.71	12
YT (IL-2 2.5 ng/mL) [10]	-7.46	-4.31	-0.8	3.09	7.52
[1]	-4.31	-0.72	10.2	26	28.9
[11]	-8.45	-3.78	9.24	17.3	18.6
[12]	-10.1	0.65	23.9	23.6	23
[13]	-5.92	-0.84	8.9	12.8	19.5
[14]	-9.02	-6.59	-2.09	5.05	11.5

Conditions	drug sensitivity score
DERL-7 (IL-2 2.5 ng/mL) [16]	9.28
IMC-1 (IL-2 20 ng/mL) [17]	0
KAI3 (IL-2 2.5 ng/mL) [18]	5.48
KHYG-1 (IL-2 2.5 ng/mL) [19]	1.82
NK-92 (IL-2 2.5 ng/mL) [20]	0
NK-YS (IL-2 2.5 ng/mL) [21]	2.84
NKL (IL-2 2.5 ng/mL) [22]	7.1
SNK-6 (IL-2 2.5 ng/mL) [23]	0.26
YT (IL-2 2.5 ng/mL) [24]	0
[15]	5.29
[25]	3.28
[26]	6.52
[27]	1.86
[28]	0.17
